The text below walks through data of publication PMC7516806, “Hybrid Antimicrobial Peptide Targeting Staphylococcus aureus and Displaying Anti-infective Activity in a Murine Model” (Frontiers in Microbiology, 2020).

Series [1] relates to P. aeruginosa 27853. Briefly: MIC, modified microtiter dilution. To be noted: MHB, 2–7 × 10^5 CFU/ml, 37°C, 24 h, no turbidity, at least three independent repeats. It is filed as cell-based, Pseudomonas aeruginosa. From the text:
(§1) The experiment was repeated at least three times independently.

For series [2], the system named is MRSA 43300. It is filed as cell-based, Staphylococcus aureus. Particulars: MHB, 2–7 × 10^5 CFU/ml, 37°C, 24 h, no turbidity, at least three independent repeats.
Excerpt: as §1

Series [3] concerns L. rhamnosus 1.0385. Briefly: MIC, modified microtiter dilution. The class given is cell-based, Lactobacillus rhamnosus. To be noted: 2–7 × 10^5 CFU/ml, 37°C, 24 h, no turbidity, at least three independent repeats.
Excerpt: as §1

In series [4] the test system is L. rhamnosus 1.0911. Nature of the series: MIC, modified microtiter dilution. It is filed as cell-based, Lactobacillus rhamnosus. Particulars: 2–7 × 10^5 CFU/ml, 37°C, 24 h, no turbidity, at least three independent repeats.
Excerpt: as §1

For series [5], the system named is L. rhamnosus 1.0936. Briefly: MIC, modified microtiter dilution. The class given is cell-based, Lactobacillus rhamnosus. Particulars: 2–7 × 10^5 CFU/ml, 37°C, 24 h, no turbidity, at least three independent repeats.
Excerpt: as §1

Series [6] deals with L. rhamnosus 7469. Briefly: MIC, modified microtiter dilution. Particulars: 2–7 × 10^5 CFU/ml, 37°C, 24 h, no turbidity, at least three independent repeats. The class given is cell-based, Lactobacillus rhamnosus.
Excerpt: as §1

Series [7] concerns S. aureus 29213. Briefly: MIC in the presence of physiological salts. The class given is cell-based, Staphylococcus aureus. Particulars: three independent repeats, unit not given in Table 4. The protocol:
as §1
The MIC of peptides was determined in the presence of salts at physiological concentrations (150 mM NaCl, 4.5 mM KCl, 6 μM NH4Cl, 8 μM ZnCl2, 1 mM MgCl2, 2 mM CaCl2, and 4 μM FeCl3) as described previously ([Dong et al., 2014]). All experiments were performed three times independently.

Series [8] concerns S. aureus ATCC 29213. Nature of the series: Time-dependent killing kinetics. It is filed as cell-based, Staphylococcus aureus. To be noted: six independent trials. As for the experimental part: The logarithmic phase S. aureus ATCC 29213 cells were harvested by centrifugation at 1000 × g for 5 min, washed twice with PBS, and diluted to 2–7 × 10^5 CFU/mL. S. aureus was treated with AMPs at various concentrations, including 0.125, 0.25, 0.5, 1, and 2 × MIC. At various time intervals (5 s, 10 s, 30 s, 1 min, 5 min, 10 min, and 30 min), 50 μL of bacterial solution was diluted and plated on MHA plates. Bacterial colonies were counted after 24 h of incubation at 37°C. The results were carried out in six independent trials.

In series [9] the test system is RAW 264.7 cells. Nature of the series: Cytotoxicity, MTT dye reduction assay. It is filed as cell-based, murine. The protocol: The cytotoxicity of peptides was determined by healthy human erythrocytes and the murine macrophage cell line RAW 264.7 via a hemolysis assay and MTT dye reduction assay, respectively ([Wang et al., 2018]). In the hemolysis assay, fresh hRBCs from healthy people were centrifuged for 5 min at 1,000 × g and then washed three times with PBS (pH = 7.2). The 100 μL erythrocyte suspension and peptides were incubated for 1.5 h in an incubator at 37°C. The 96-well plates were centrifuged at 1,000 × g for 5 min, and the supernatants were carefully aspirated. The absorbance at 570 nm indicated the leakage of hemoglobin. The hRBCs in the PBS sample was used as the negative control, and 0.1% Triton X-100 addition served as the positive control. In the MTT dye reduction assay, 1.0–2.0 × 10^5 cells were plated in 96-well plates and then treated with various concentrations of peptides for 4 h at 37°C in a 5% CO2 incubator. Subsequently, 50 μL of MTT was added to the plated cells at a final concentration of 0.5 mg/mL and incubated for 4 h. Then, the cells were centrifuged at 1000 × g for 5 min, and the supernatants were discarded. Formazan crystals were dissolved in 150 μL of DMSO, and the OD570 nm was measured using a microplate reader (TECAN GENios F129004; TECAN, Austria). The experiment was repeated three times independently.

For series [10], the system named is GM-CSF. Briefly: Cytokine ELISA in infected skin. It is filed as in vivo, ICR mice. Particulars: 24 h after treatment, P < 0.05. As for the experimental part:
(§2) To assess the antimicrobial activity of the peptide in vivo, a mouse model of subcutaneous infection was used ([Huang et al., 2011a]; [Omolo et al., 2017]). Female Institute for Cancer Research (ICR) mice (SPF, 20–25 g) were purchased from WeiTonglihua Co., Ltd. (Beijing, China), with eight animals per group. The mice were shaved on their backs and disinfected. S. aureus 29213 (100 μL) at a concentration of 1 × 10^8 CFU/mL was injected into the superficial skin of the mice. The mice were divided into four groups (n = 4), as follows: S. aureus + saline, S. aureus + S2 (80× MIC, 100 μL), S. aureus + vancomycin (Van) (80× MIC, 100 μL), and saline. S2, vancomycin, and saline were injected at the same site 1 h after infection. The mice were monitored over 24 h in an environmentally controlled room at 25 ± 1°C and 55 ± 5% relative humidity with a 12 h light/dark cycle.
(§3) The mice were treated as described above. Skin samples were treated according to the manufacturer’s instructions. The levels of tumor necrosis factor-alpha (TNF-α), interleukin-6 (IL-6), and granulocyte-macrophage colony-stimulating factor (GM-CSF) in infected skin were measured using enzyme-linked immunosorbent assay (ELISA) kits following the manufacturer’s instructions.
For orientation: ELISA stands for enzyme-linked immunosorbent assay.

Series [11] relates to IL-6. Nature of the series: Cytokine ELISA in infected skin. The class given is in vivo, ICR mice. To be noted: 24 h after treatment, P < 0.05. The protocol: as §2, §3
Series [12] relates to TNF-α. Briefly: Cytokine ELISA in infected skin. To be noted: 24 h after treatment, P < 0.05. It is filed as in vivo, ICR mice. As for the experimental part:
as §2, §3

Series [13] relates to mouse skin. Briefly: Skin toxicity in vivo, TUNEL assay. The arrangement: species or system ICR mice. To be noted: 100 μL at 80 × MIC injected into skin, 24 h. The protocol:
Anesthetized mice were shaved on their backs and disinfected. A total of 100 μL of S2 (80 × MIC) was injected into the skin. Equal volumes of saline and 100% DMSO were used as the negative and positive controls, respectively. The skin was removed from the injection sites for tissue processing after 24 h. OCT-embedded slides were stained using the DeadEnd^TM Fluorometric TUNEL System for the detection of apoptotic cells and counterstained with 4,6-diamidino-2-phenylindole (DAPI). Photographs were taken using a microscope ([Huang et al., 2011a]).

Values after ≈ are worked out from the molar mass of the structure shown. Positions of bridges follow the written chain, without caps; N, C: chain ends. Residues, ends and D or L forms follow the SMILES beside them. Bounds are passed on as bounds.

With `CC(C)C[C@H](NC(=O)[C@H](CC(C)C)NC(=O)[C@H](Cc1c[nH]c2ccccc12)NC(=O)[C@H](Cc1c[nH]c2ccccc12)NC(=O)[C@H](Cc1c[nH]c2ccccc12)NC(=O)[C@H](CCCNC(=N)N)NC(=O)[C@@H]1CSSC[C@H](N)C(=O)N[C@@H](C)C(=O)N[C@@H](CO)C(=O)N[C@@H](Cc2ccc(O)cc2)C(=O)N[C@@H](Cc2ccccc2)C(=O)N1)C(N)=O` [Peptide S2] (H-CASYFCRWWWLL-NH2; disulfide 1-6; N-terminus assumed), the “MIC P. aeruginosa 27853” value in [1] was above 64 µM. Also, in series [2], the “MIC MRSA 43300” value was found to be 8 µM (≈ 13 µg/mL). The “MIC L. rhamnosus 1.0385” value in series [3] was above 64 µM. Also, the “MIC L. rhamnosus 1.0911” value in series [4] is above 64 µM. Besides, the “MIC L. rhamnosus 1.0936” value in series [5] is above 64 µM. For the same compound, the “MIC L. rhamnosus 7469” value in series [6] is above 64 µM. In addition, the “MIC against S. aureus 29213, FeCl3” value in [7] (4 μM FeCl3) was determined as 16 µM. Also, the “MIC against S. aureus 29213, NH4Cl” value in series [7] (6 μM NH4Cl) stood at 8 µM. Also, in series [7] (8 μM ZnCl2), the “MIC against S. aureus 29213, ZnCl2” value amounted to 4 µM. The “MIC against S. aureus 29213, MgCl2” value in series [7] (1 mM MgCl2) was determined as 8 µM. In addition, in [7] (2 mM CaCl2), the “MIC against S. aureus 29213, CaCl2” value amounted to 16 µM. Besides, the “MIC against S. aureus 29213, KCl” value in [7] (4.5 mM KCl) turned out to be 8 µM. For the same compound, in series [7] (150 mM NaCl), the “MIC against S. aureus 29213, NaCl” value was 8 µM. Besides, the “bacterial reduction in S. aureus” value in series [8] (0.5 × MIC, after 5 s of exposure, PBS, 2–7 × 10^5 CFU/mL) was 2 log10. Moreover, the “time of peptide exposure for 100% bacterial killing” value in series [8] (at 2 × MIC) is given as 30 s; in series [8] (at MIC), 60 s. Besides, in series [9], the “killing activity against RAW 264.7 cells” value was “no killing activity against RAW 264.7 cells”. Also, in series [9] (highest concentration of 128 μM, 4 h, three independent repeats), the “RAW 264.7 cell survival rate” value stood at 105%. Also, the “GM-CSF levels in infected skin versus control group and Van group” value in [10] is “significantly higher”. Besides, in series [11], the “IL-6 generation in infected skin” value is listed as “suppressed”. Moreover, in [12], the “TNF-α generation in infected skin” value is “suppressed”. Further, in series [13], the “apoptotic cells in mouse skin (TUNEL)” value is “no apparent epidermal apoptosis”.
